Values quoted from earlier work in patent US4127539A, “Novel hexacosapeptides, intermediates therefore and pharmaceutical compositions and methods employing said hexacosapeptides” (priority 1977, dated 1978).

How the values were obtained:
[1] = test system: partially purified brain opiate receptor sites; conditions: literature, background section
rat = conditions: injected directly into the brain of the rat
[2] = literature, background section

H-Tyr-Gly-Gly-Phe-Met-OH [methionine enkephalin]
binding to partially purified brain opiate receptor sites [1]: binds stereo-specifically
analgesic effect (rat): only weak analgesic agent of short duration
activity in bioassays for opiate activity [2]: very active
